# Measurements taken from PubChem BioAssay (NCI).
#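 At the GI50, growth is halved. TGI is the concentration that stops growth completely.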
# Assays:
# Experiment in all cases: NCI-60 cell line screen, 384-well format
# [1] = system: U251 glioblastoma
# [2] = system: OVCAR-8 ovarian
# [3] = system: T-47D breast
# [4] = system: UO-31 renal
# [5] = system: NCI/ADR-RES ovarian
# [6] = system: MDA-MB-468 breast
# [7] = system: K-562 leukemia
# [8] = system: IGROV1 ovarian
# [9] = system: NCI-H460 NSCLC
# [10] = system: MDA-MB-231 breast
# [11] = system: UACC-62 melanoma
# [12] = system: NCI-H226 lung
# [13] = system: HCT-116 colon
Structure (SMILES),GI50 [1] [µM],TGI [1] [µM],GI50 [2] [µM],TGI [2] [µM],GI50 [3] [µM],TGI [3] [µM],GI50 [4] [µM],TGI [4] [µM],GI50 [5] [µM],TGI [5] [µM],GI50 [6] [µM],TGI [6] [µM],GI50 [7] [µM],TGI [7] [µM],GI50 [8] [µM],TGI [8] [µM],GI50 [9] [µM],TGI [9] [µM],GI50 [10] [µM],TGI [10] [µM],also measured
CC1(N)CCN(c2cnc(-c3cccc(Cl)c3Cl)c(N)n2)CC1,13.5,27.4,27.9,> 100,13.3,27.9,14.2,> 100,17.9,> 71.1,0.898,5.96,0.783,14.4,8.4,27,18.1,33.3,20.2,49.6,GI50 [11]: 18.7 µM; TGI [11]: 32.9 µM; GI50 [12]: 8.68 µM; TGI [12]: 46.6 µM; GI50 [13]: 17.2 µM; TGI [13]: 32.1 µM
NS(=O)(=O)NCCNc1nonc1C(=Nc1ccc(F)c(Br)c1)NO,33.9,> 100,46.9,> 100,23.9,> 74.5,36,> 100,> 100,> 100,14.6,33.1,27.8,> 100,37.4,> 100,27.4,73,67.2,> 100,GI50 [11]: 24.5 µM; TGI [11]: > 100 µM; GI50 [12]: 20.8 µM; TGI [12]: > 84.4 µM; GI50 [13]: 36.6 µM; TGI [13]: > 100 µM
